Laboratory results published in patent US12564622B2, “Preventing cytokine release syndrome” (priority 2017, dated 2026).
Where “and” joins values, the source holds several entries; their conditions need not be identical. Equal entries are not always repeated. Entries after “also recorded” stand apart in the source; their conditions may differ.

Columns and labels:
[1] = system: polymicrobial peritoneal sepsis induced by CLP; assay: Cecal ligation and puncture (CLP) sepsis; assay type: in vivo, mouse (C57BL/6); details: for circulating pro-inflammatory cytokines after CLP: pre-treatment
Description: (§1) Cecal ligation and puncture (CLP) was performed as described elsewhere (Rittirsch et al., 2009 Nature Protocols, 4:31-6). Briefly, six-to-eight week old female C57BL/6 mice were anesthetized and following abdominal incision, the cecum was ligated at about 14 the distance from the luminal entry to its tip. The ligated cecum was punctured through and through with a 22 G needle at ½ and ¾ the distance from the luminal entry to its tip. A small amount of the cecal content was gently pushed out of the four openings into the peritoneum. Subsequently, the abdominal muscles were sutured and the skin was closed with two staples. Five hundred microliters of saline were immediately injected subcutaneously to the mice. For the groups treated with antibiotics, imipenem (Sigma) was injected subcutaneously at 25 mg/kg starting from 20 hours after CLP, with a schedule of twice a day on day one and once a day thereafter for 10 days. Human ANP (Sigma) was dissolved in saline, loaded in mini-osmotic pumps (ALZET) with a release rate of 12 μg/day and implanted subcutaneously in the back of mice 12 hours before the CLP, with pumps loaded with saline serving as controls. Metyrosine was freshly dissolved in PBS and injected IP at 60 mg/kg/day for three days before the CLP. Twenty minutes before the CLP, metyrosine was injected at 60 mg/kg IP into the right side. The control groups were injected with PBS. For the following 4 days, metyrosine was injected at 30 mg/kg/day IP into the right side. Hydration of mice was supported by daily subcutaneous injection of 0.5 ml saline.
as §1, with “CLP” for “Cecal ligation and puncture (CLP)”, “(see, e.g., Rittirsch” for “(Rittirsch”, “2008 Rev Immunol 8:776-787).” for “2009 Nature Protocols, 4:31-6).”, “6-8 weeks” for “six-to-eight week”, “¼” for “14”, “days.” for “days. Human ANP (Sigma) was dissolved in saline, loaded in mini-osmotic pumps (ALZET) with a release rate of 12 μg/day and implanted subcutaneously in the back of mice 12 hours before the CLP, with pumps loaded with saline serving as controls.”

[2] = system: mouse peritoneal macrophages; assay: Peritoneal macrophage catecholamine and cytokine production; assay type: cell-based; details: for cytokine release: ANP 5 μg/ml or metyrosine 2 mM
Description: Isolation of elicited macrophages from mouse peritoneum followed previously described procedures with minor modifications (Zhang et al., “The isolation and characterization of murine macrophages,” Curr Protoc Immunol Chapter 14, Unit 14.1 (November, 2008)). Four days prior to the harvest, 1 ml of 3% Brewer's thioglycollate medium (BD) was injected IP in female 2-3 months old BALB/c mice. Mice were euthanized by cervical dislocation and the skin of the belly was cut open without penetrating the muscle layer. Using a syringe with a 22 G needle, 5 ml of cold PBS containing 5 mM EDTA was injected carefully into the peritoneal cavity. After massaging gently for 1-2 minutes, a 1-ml syringe without needle was used to extract the peritoneal contents containing residential macrophages. Cells were centrifuged at 400 g for 10 minutes at 4° C., resuspended in DMEM/F12 medium supplemented with 1% FBS and antibiotics and distributed in 48-well plates at a concentration of 0.5×10^6 cells/well. After incubation at 37° C. for 2 hours, cells were rinsed three times with 0.5 ml media and then 250 μl of media was added to each well. […] For stimulation, the cells were incubated for 24 hours with LPS at 50 μg/ml. […] To stimulate macrophages, they were exposed to epinephrine at 15 ng/ml for 24 hours at 37° C. After the incubation, supernatants were collected from the wells and mixed with 5 mM EDTA and 4 mM sodium metabisulfite for preservation of catecholamines and stored at −80° C. […] Thus, any epinephrine identified in the media must have been secreted by cells in the last 24 hours prior to harvesting the media.
Isolation of elicited macrophages from mouse peritoneum followed previously described procedures with minor modifications66. Four days prior to the harvest, 1 ml of 3% Brewer's thioglycollate medium (BD) was injected IP in female 2-3 months old BALB/c mice or 4-6 weeks old conditional TH knockout mice. Mice were euthanized by cervical dislocation and the skin of the belly was cut open without penetrating the muscle layer. Using a syringe with a 25 G needle, 5 ml of cold PBS containing 5 mM EDTA was injected carefully into the peritoneal cavity. After massaging gently for 1-2 minutes, a 1-ml syringe without needle was used to extract the peritoneal contents containing residential macrophages. Cells were centrifuged at 400 g for 10 minutes at 4° C., resuspended in DMEM/F12 medium supplemented with 1% FBS and antibiotics and distributed in 48-well plates at a concentration of 0.5×10^6 cells/well. After incubation at 37° C. for 2 hours, cells were rinsed three times with 0.5 ml media and then 250 μl of media was added to each well. […] For stimulation, the cells were incubated for 24 hours with LPS at 50 μg/ml. […] To stimulate macrophages, they were exposed to epinephrine at 15 ng/ml for 24 hours at 37° C. After the incubation, supernatants were collected from the wells and mixed with 5 mM EDTA and 4 mM sodium metabisulfite for preservation of catecholamines and stored at −80° C. […] Thus, any epinephrine identified in the media must have been secreted by cells in the last 24 hours prior to harvesting the media.

[3] = system: Eμ-ALL bearing C57BL/6 mice treated with mCART19; assay: mCART19 treatment of syngeneic Eμ-ALL B-ALL model; assay type: in vivo, mouse (C57BL/6); details: for catecholamine and cytokine release: 24 and 72 hours after mCART19; for therapeutic (antitumor) efficacy versus mCART19 alone: prophylaxis with ANP pump or metyrosine IP
Description: The Eμ-ALL cell line was derived from a lymphoid malignancy in an Eμ-myc transgenic mouse and upon IV injection, can develop B-ALL in C57BL/6 mice. The Eμ-ALL cells were co-cultured with feeder NIH-3T3 cells that were irradiated at 60 Gy, in RPMI 1640 media supplemented with 10% FBS, 0.05 mM 2-Mercaptoethanol and antibiotics. Eμ-ALL cells were transfected with luciferase via lentivirus. 2×10^6 Eμ-ALL cells were IV injected in female 6-8 week-old C57BL/6 mice via tail vein and after 6 days, mice were IP injected with cyclophosphamide (CPA) at 100 mg/kg for pre-conditioning as described elsewhere (see, e.g., Davila et al., 2013 PLoS One 8:e61338). One day after CPA treatment, 10×10^6 mCART19 cells were IV injected in the mice. Metyrosine was injected IP at 40 mg/kg/day for three days before the mCART19 injection. On the day of mCART19 injection, a fourth dose of 40 mg/kg was given IP and the mice were subsequently injected four more times at daily intervals at 30 mg/kg. One day before mCART19 injection, mini-osmotic pumps (ALZET) loaded with hANP with a release rate of 12 μg/day were implanted subcutaneously in the back of mice. Tumor load was monitored by Xenogen before and after mCART19 injection.

[4] = system: Raji-bearing NSGS mice with low tumour burden treated with hCART19; assay: hCART19 treatment of Raji-bearing NSGS mice, low tumour burden; assay type: in vivo, mouse (NSGS); details: for hCART19-induced catecholamines and human and mouse cytokines: metyrosine IP or ANP by osmotic pump; for prevention of CRS (mouse cytokines IL-6, KC, MIP-2): with hCART19
Description: Six to eight weeks old female NSG-SGM3 (NSGS) mice (NOD.Cg-Prkdcscid Il2rgtm1WjlTg (CMV-IL3, CSF2, KITLG) 1Eav/MloySzJ, Stock #013062) were purchased from the Jackson Laboratory. Raji cells were transfected with a luciferase construct via lentivirus to create Raji-luc cells. NSGS is a triple transgenic strain expressing human IL3, GM-CSF and SCF combine the features of the highly immunodeficient NOD scid gamma (NSG) mouse. One day before the injection of Raji cells, mice were irradiated at a dose of 2 Gy in a CIXD Xstahl device. In high tumor burden experiments in FIG. 5, 10^6 Raji-luc cells were injected IV via tail vein. Six days later, tumor loads were assessed using a Xenogen instrument and 15×10^6 hCART19 cells or untransduced T-cells were injected IV. In low tumor burden experiments in FIG. 6, 2×10^5 Raji-luc cells were injected IV via tail vein. Four days later, tumor loads were assessed using a Xenogen instrument and 15×10^6 hCART19 cells were injected IV. Metyrosine was injected IP at 60 mg/kg/day for three days before the hCART19 injection. On the day of CART19 injection, a fourth dose of 60 mg/kg was given IP and the mice were subsequently injected four more times at daily intervals at 30 mg/kg.

[5] = LPS 50 μg/ml, 24 hours, pre-incubation 10 minutes with ANP 5 μg/ml or metyrosine 2 mM
[6] = LPS, epinephrine or the combination of both, metyrosine 2 mM

Row | SMILES | circulating pro-inflammatory cytokines after CLP ([1]; 24 hours after CLP) | survival after CLP ([1]; ANP by osmotic pump implanted 12 hours before CLP) | pathologic examination (peritoneum, lungs, liver) ([1]; ANP pre-treated, 24 hours after CLP) | cytokine release ([2]; LPS 50 μg/ml, 24 hours) | catecholamine production [2, 5] | catecholamine production ([2]; epinephrine 15 ng/ml stimulated, ANP pre-treatment) | catecholamine and cytokine (IL-6, TNF-α, MIP-2, KC) production ([2]; epinephrine alone 15 ng/ml) | amplified inflammatory response ([2]; epinephrine in combination with LPS) | catecholamine and cytokine release [3] | therapeutic (antitumor) efficacy versus mCART19 alone [3] | hCART19-induced catecholamines and human and mouse cytokines ([4]; low tumour burden) | prevention of CRS (mouse cytokines IL-6, KC, MIP-2) [4] | mice surviving CLP (acute phase) ([1]; metyrosine IP pre-treatment) | fraction of mice surviving CLP ([1]; metyrosine pre-treatment plus imipenem from 20 hours after CLP) | catecholamines produced [2, 6] | cytokines released [2, 6] | animals with tumors eradicated (BLI below 10^6), day 6 ([4]; hCART19 plus metyrosine) | animals with tumors eradicated (BLI below 10^6), day 19 ([4]; hCART19 plus metyrosine) | reduction of lymphoma burden within one week versus hCART19 controls ([4]; hCART19 plus metyrosine, BLI) | long-term survival ([4]; low tumour burden) [%]
1 | CC[C@H](C)[C@@H]1NC(=O)[C@H](CCCNC(=N)N)NC(=O)[C@H](CC(=O)O)NC(=O)[C@H](CCSC)NC(=O)[C@H](CCCNC(=N)N)NC(=O)CNC(=O)CNC(=O)[C@H](Cc2ccccc2)NC(=O)[C@@H](NC(=O)[C@H](CO)NC(=O)[C@H](CO)NC(=O)[C@H](CCCNC(=N)N)NC(=O)[C@H](CCCNC(=N)N)NC(=O)[C@H](CC(C)C)NC(=O)[C@@H](N)CO)CSSC[C@@H](C(=O)N[C@@H](CC(N)=O)C(=O)N[C@@H](CO)C(=O)N[C@@H](Cc2ccccc2)C(=O)N[C@@H](CCCNC(=N)N)C(=O)N[C@@H](Cc2ccc(O)cc2)C(=O)O)NC(=O)CNC(=O)[C@H](CC(C)C)NC(=O)CNC(=O)[C@H](CO)NC(=O)[C@H](CCC(N)=O)NC(=O)[C@H](C)NC(=O)CNC1=O [ANP, atrial natriuretic peptide] | greatly reduced | almost half of the animals survived the acute phase | less peritoneal inflammation, pulmonary septal thickening, and hepatic inflammation; also recorded: lower or absent pulmonary septal thickening and vacuolization | reduction in the cytokine levels | reduce the production of all three major catecholamines; also recorded: suppress the increased production; also recorded: effectively blocked | inhibited this production | also suppressed | inhibited | reduced | matched the therapeutic efficacy | abrogated | effective at preventing CRS |  |  |  |  |  |  |  | 
2 | C[C@](N)(Cc1ccc(O)cc1)C(=O)O [metyrosine, α-methyl-tyrosine] | substantially reduced |  |  | similarly inhibited | greatly reduced; also recorded: effectively blocked |  |  |  | reduced | matched the therapeutic efficacy | reduced | effective at preventing CRS | 20% and 22% | > ⅔ | greatly reduced | diminished | 6 out of 10 | 4 out of 10 | significantly more so | 40
